Assays:
VCaP cells [1] = assay: human cytokine array of conditioned medium; type: cell-based; settings: VCaP conditioned media, 300 nM, 24 hours
Description: Cells were seeded in 6-well plates, and conditioned medium was collected after 24 hours of drug incubation. Cytokine expression was determined by proteome profiler mouse XL cytokine array (Cat No. ARY028, R&D System) or proteome profiler human XL cytokine array kit (Cat No. ARY022, R&D System) according to the manufacturer's instructions.

[2] = tested on: prostate cancer cell lines; assay: cell cycle analysis; type: cell-based, human
Description: Cells were seeded in 6-well plates and treated with various drugs for 72 hours. Single cells were fixed with 70% ethanol, stained with propidium iodine, and cell cycle was analyzed by flow cytometry.

PC3 and DU145 cells = assay: autophagic flux detection (GFP-LC3-RFP-LC3ΔG probe); type: cell-based, human; settings: PC3 or DU145 cells, 24 hours
Description: For autophagic flux detection, 10,000 cells were plated in 96-well plates and incubated with various compounds in complete medium for 24 hours. GFP and RFP fluorescence intensities were measured on a TECAN M1000 plate reader.

[3] = tested on: prostate cancer cell lines (VCaP, LNCaP, 22RV1, LNCaP-AR, PC3, DU145); assay: long-term survival assay (14 days, crystal violet); type: cell-based, human; settings: Homo sapiens, 336 h; range across AR positive (VCaP, LNCaP, 22RV1, LNCaP-AR) and AR-negative (PC3, DU145) cell lines, two weeks; read-out: growth inhibitory IC50
Description: Single cell suspensions were seeded into 96-well plates at a density of 1,000-30,000 cells per well. Long-term survival was determined after 14 days of drug incubation. Viable cells were fixed with 4% formaldehyde and subsequently stained with 1% crystal violet. IC50 was calculated using GraphPad Prism.

VCaP cells [4] = assay: untargeted lipidomic analysis; type: cell-based, human; settings: 300 nM, 6 and 24 hours
Description: Details of sample preparation and identification for untargeted lipidomic profiling have been previously reported^68. The lipids were extracted using a modified Bligh-Dyer method^69. The extraction was carried out using a 2:2:2 volume ratio of water:methanol:dichloromethane at room temperature after spiking internal standard lipids (17:0LPC, 17:0PC, 17:0PE, 17:0PG, 17:0 ceramide, 17:0SM, 17:0PS, 17:0PA, 17:0TG, 17:0MG, d5-DG, d31-TG, and 17.0-20.4 PI). The organic layer was collected and dried completely under nitrogen. The organic dried extract containing lipids was further analyzed by LC-MS-based lipidomics. The dried lipid extracts were injected onto a 1.8-μm particle 50×2.1 mm id Waters Acquity HSS T3 column (Waters, Milford, MA), which was heated to 55° C. […] As controls (QC) to monitor the profiling process, a pool of plasma and test plasma (a small aliquot from all test samples) were extracted and analyzed in tandem with the experimental samples. These controls were incorporated multiple times into the randomization scheme such that sample preparation and analytical variability could be constantly monitored. […] Identified lipids were quantified by normalizing against their respective internal standard. […] The QC samples were mainly used to remove technical outliers and lipid species that were detected below the lipid class-based lower limit of quantification.

[5] = toxicity evaluation in mice (body weight, serum chemistry, organ histology); type: in vivo, mouse
Description: To determine whether ESK981-mediated growth inhibition translated into anti-tumor effects, the efficacy of ESK981 in blocking prostate cancer growth in mouse xenograft models was assessed. VCaP cells were chosen for initial experiments because this cell line harbors the TMPRSS2:ERG gene fusion and AR amplification, both of which are frequent molecular aberrations in patients with advanced CRPC^29. A castration-resistant VCaP tumor-bearing xenograft mouse model was generated to mimic disease progression in human patients (FIG. 3a).
Whole blood was collected using BD Microtainer SST tubes, and serum was isolated by centrifugation at 7000 rpm for 10 minutes. Sera were submitted to the University of Michigan ULAM Pathology Cores for Animal Research for liver and renal chemistry analysis.

[6] = tested on: lysosomes in VCaP, LNCaP, PC3 and DU145 cells; assay: LysoTracker Green flow cytometry; type: cell-based, human; settings: four prostate cancer cell lines, 24 hours, increasing concentrations
Description: Cells were grown in 6-well plates and treated with various drugs. After 24 hours, cells were stained with LysoTracker® Green DND-26 (Invitrogen), and green fluorescence signal was analyzed by flow cytometry.

In the case of `CC(C)Cn1c2ccc(Nc3ncccn3)cc2c2c3c(c4c(c21)CCc1nn(C)cc1-4)C(=O)NC3` [ESK981, 13-isobutyl-4-methyl-10-(pyrimidin-2-ylamino)-1,2,4,7,8,13-hexahydro-6H-indazolo[5,4-a]pyrrolo[3,4-c]carbazol-6-one], the “cytokines induced (array of 105 cytokines)” value (VCaP cells [1]) is reported as “significantly induced only CXCL10 and, to a lesser extent, CCL2”, the cell cycle arrest ([2]; 72 hours, increasing concentrations) is reported as “dose-dependent G2/M phase arrest” and the “G2/M arrest compared with other inhibitors” value ([2]; VCaP cells, ESK981 100 nM vs cabozantinib 5 μM, crizotinib 3 μM, enzalutamide 10 μM) is reported as “greater G2/M arrest potential at a lower concentration”. For the same molecule, the “autophagic flux (GFP/RFP ratio)” value (PC3 and DU145 cells) was “low autophagic flux”, the IC50 [3] was 35 to 192 nM and the major lipid changed (VCaP cells [4]) was “phosphatidylethanolamine (PE) was the major lipid increased”. The “tissue vacuolization in major organs” value ([5]; H&E staining of organs of ESK981-treated mice) was “no major organs were found to have the same tissue vacuolization morphology”, the body weight loss ([5]; VCaP tumor-bearing mice) was “within the range of tolerance” and the tolerability in mice ([5]; body weight, liver and kidney serum chemistry, histology of major organs) was “well-tolerated”. For the same molecule, the “lysosome quantity (LysoTracker Green)” value [6] was “Increased ESK981 lysosome quantity was observed in a dose-dependent manner”.
